According to PMC5748279, “Novel Antitubercular 6-Dialkylaminopyrimidine Carboxamides from Phenotypic Whole-Cell High Throughput Screening of a SoftFocus Library: Structure–Activity Relationship and Target Identification Studies” (Journal of Medicinal Chemistry, 2017):
Where two headings read alike, the source gives them in different places.

Legend:
[1] = system: 13-resistant mutant of Mtb H37Rv; type: cell-based, Mycobacterium tuberculosis
(UniProt A0A0H3MB87) = assay: biochemical; type: binding, Mycobacterium bovis BCG
Chain of (UniProt A0A0H3MB87) (A0A0H3MB87 1-463): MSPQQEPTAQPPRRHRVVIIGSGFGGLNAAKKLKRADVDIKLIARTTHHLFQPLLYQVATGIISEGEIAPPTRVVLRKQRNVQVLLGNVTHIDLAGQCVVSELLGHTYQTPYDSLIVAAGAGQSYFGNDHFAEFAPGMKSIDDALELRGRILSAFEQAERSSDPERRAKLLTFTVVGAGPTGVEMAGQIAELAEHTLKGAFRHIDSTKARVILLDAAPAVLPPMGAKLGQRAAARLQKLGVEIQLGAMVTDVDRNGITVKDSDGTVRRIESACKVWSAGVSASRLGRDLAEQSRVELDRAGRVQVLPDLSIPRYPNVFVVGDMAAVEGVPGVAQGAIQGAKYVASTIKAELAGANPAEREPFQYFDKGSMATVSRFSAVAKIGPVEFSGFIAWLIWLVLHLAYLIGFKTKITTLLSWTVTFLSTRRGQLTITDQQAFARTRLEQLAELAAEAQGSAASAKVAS

(UniProt A0A0H3MC72) = assay: biochemical; type: binding, Mycobacterium bovis BCG
Chain of (UniProt A0A0H3MC72) (A0A0H3MC72 1-488): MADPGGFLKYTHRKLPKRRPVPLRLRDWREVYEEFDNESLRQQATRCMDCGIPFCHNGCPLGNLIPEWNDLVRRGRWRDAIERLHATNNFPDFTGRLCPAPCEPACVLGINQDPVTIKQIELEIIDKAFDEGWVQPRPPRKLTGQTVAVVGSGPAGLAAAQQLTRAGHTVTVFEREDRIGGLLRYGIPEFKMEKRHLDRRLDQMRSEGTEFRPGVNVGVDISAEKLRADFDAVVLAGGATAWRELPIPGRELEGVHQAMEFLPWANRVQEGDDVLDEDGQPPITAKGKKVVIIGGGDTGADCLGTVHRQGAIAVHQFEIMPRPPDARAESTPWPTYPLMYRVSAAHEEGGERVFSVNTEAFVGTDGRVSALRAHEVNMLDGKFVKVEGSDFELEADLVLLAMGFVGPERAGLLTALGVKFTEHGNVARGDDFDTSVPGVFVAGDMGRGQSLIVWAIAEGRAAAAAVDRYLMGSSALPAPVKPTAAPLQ

(UniProt A0A0H3MFG4) = assay: biochemical; type: binding, Mycobacterium bovis BCG
Chain of (UniProt A0A0H3MFG4) (A0A0H3MFG4 1-834): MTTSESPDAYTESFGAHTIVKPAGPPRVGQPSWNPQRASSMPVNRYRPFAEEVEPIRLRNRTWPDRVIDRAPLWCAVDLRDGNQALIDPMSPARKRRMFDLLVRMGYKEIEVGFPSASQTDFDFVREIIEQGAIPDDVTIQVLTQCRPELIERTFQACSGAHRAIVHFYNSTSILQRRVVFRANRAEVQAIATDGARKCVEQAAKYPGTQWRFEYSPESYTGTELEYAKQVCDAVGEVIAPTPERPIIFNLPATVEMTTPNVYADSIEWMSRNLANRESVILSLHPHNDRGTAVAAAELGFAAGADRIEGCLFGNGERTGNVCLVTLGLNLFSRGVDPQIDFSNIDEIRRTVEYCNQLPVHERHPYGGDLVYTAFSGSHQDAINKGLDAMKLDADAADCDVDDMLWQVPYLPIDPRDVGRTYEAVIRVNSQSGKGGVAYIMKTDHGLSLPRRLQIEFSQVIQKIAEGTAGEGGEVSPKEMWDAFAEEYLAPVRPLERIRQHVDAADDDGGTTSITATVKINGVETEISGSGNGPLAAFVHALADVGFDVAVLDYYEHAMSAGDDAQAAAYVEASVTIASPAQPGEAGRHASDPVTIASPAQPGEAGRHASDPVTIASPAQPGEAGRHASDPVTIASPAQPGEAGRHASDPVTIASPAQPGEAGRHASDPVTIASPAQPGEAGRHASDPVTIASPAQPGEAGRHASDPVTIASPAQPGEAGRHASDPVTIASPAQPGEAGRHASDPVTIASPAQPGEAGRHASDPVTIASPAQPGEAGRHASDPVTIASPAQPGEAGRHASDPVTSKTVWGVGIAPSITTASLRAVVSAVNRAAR

(UniProt A0A0H3M9R5) = assay: biochemical; type: binding, Mycobacterium bovis BCG
Chain of (UniProt A0A0H3M9R5) (A0A0H3M9R5 1-518): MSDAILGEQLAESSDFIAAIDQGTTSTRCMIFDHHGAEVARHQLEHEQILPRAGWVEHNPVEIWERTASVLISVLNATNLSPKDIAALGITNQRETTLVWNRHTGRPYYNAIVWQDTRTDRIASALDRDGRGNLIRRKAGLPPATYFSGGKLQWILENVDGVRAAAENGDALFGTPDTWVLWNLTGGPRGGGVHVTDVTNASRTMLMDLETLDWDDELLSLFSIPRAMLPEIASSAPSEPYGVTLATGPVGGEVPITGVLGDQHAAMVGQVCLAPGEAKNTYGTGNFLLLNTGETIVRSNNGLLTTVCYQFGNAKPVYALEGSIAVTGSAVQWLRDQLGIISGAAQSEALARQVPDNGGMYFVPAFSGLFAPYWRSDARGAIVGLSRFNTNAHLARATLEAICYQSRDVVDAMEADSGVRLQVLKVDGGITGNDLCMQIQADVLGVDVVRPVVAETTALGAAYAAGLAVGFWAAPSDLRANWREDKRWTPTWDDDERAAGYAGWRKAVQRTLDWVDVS

SMILES: COc1ccc(NC(=O)c2cc(N(C)Cc3ccccc3)ncn2)cc1 [Compound 1, 6-(Benzyl(methyl)amino)-N-(4-methoxyphenyl)pyrimidine-4-carboxamide]
- 14 day GAST/Fe MIC99 against 13-resistant mutant [1]: >160 µM

SMILES: CN(Cc1ccc(F)cc1)c1cc(C(=O)Nc2ccccc2)ncn1 [Compound 10, 6-((4-Fluorobenzyl)(methyl)amino)-N-phenylpyrimidine-4-carboxamide]
- 14 day GAST/Fe MIC99 against 13-resistant mutant [1]: >160 µM

SMILES: COc1ccc(NC(=O)c2cc(N(C)Cc3cccc(F)c3)ncn2)cc1 [Compound 13, 6-((3-Fluorobenzyl)(methyl)amino)-N-(4-methoxyphenyl)pyrimidine-4-carboxamide]
- 14 day GAST/Fe MIC99 against 13-resistant mutant [1]: >160 µM

SMILES: CN(Cc1ccc(C(F)(F)F)nc1)c1cc(C(=O)Nc2ccccc2)ncn1 [Compound 20, 6-(Methyl((6-(trifluoromethyl)pyridin-3-yl)methyl)amino)-N-phenylpyrimidine-4-carboxamide]
- 14 day GAST/Fe MIC99 against 13-resistant mutant [1]: >160 µM

SMILES: O=C(Nc1ccccc1)c1ccc(=O)n(Cc2ccc(F)cc2)c1 [Compound 25, 1-(4-Fluorobenzyl)-6-oxo-N-phenyl-1,6-dihydropyridine-3-carboxamide]
- IC50 ((UniProt A0A0H3MB87); read-out: IC50): ≥ 30 µM
- IC50 ((UniProt A0A0H3MB87); read-out: pIC50 (converted)): ≥ 30.2 µM
- IC50 ((UniProt A0A0H3MC72); read-out: IC50): ≥ 30 µM
- IC50 ((UniProt A0A0H3MC72); read-out: pIC50 (converted)): ≥ 30.2 µM
- IC50 ((UniProt A0A0H3MFG4); read-out: IC50): ≥ 30 µM
- IC50 ((UniProt A0A0H3MFG4); read-out: pIC50 (converted)): ≥ 30.2 µM
- IC50 ((UniProt A0A0H3M9R5); read-out: IC50): ≥ 30 µM
- IC50 ((UniProt A0A0H3M9R5); read-out: pIC50 (converted)): ≥ 30.2 µM

SMILES: CC(C)Oc1ccc(NC(=O)c2cc(N(C)Cc3ccc(F)cc3)ncn2)cc1 [Compound 36, 6-((4-Fluorobenzyl)(methyl)amino)-N-(4-isopropoxyphenyl)pyrimidine-4-carboxamide]
- 14 day GAST/Fe MIC99 against 13-resistant mutant [1]: >160 µM
